{"source": "paper PMC5662925", "about": "“Selective Targeting of Bromodomains of the Bromodomain-PHD Fingers Family Impairs Osteoclast Differentiation” (ACS Chemical Biology, 2017)", "key": {"[1]": {"test_system": "MMP9 secretion by human RANKL-induced osteoclasts", "test": "MMP9 ELISA of human osteoclast supernatant", "type": "cell-based", "details": "1.25 μM, 7 days or 11 days"}, "BRD4(1)": {"biological_target": "BRD4(1) (Homo sapiens, UniProt O60885)", "test": "Temperature shift assay (ΔTm)", "type": "binding", "details": "10 µM compound"}, "[2]": {"test_system": "NFATC1 protein level in murine BMCs", "test": "Western blot of NFATC1 in murine BMCs", "type": "cell-based, mouse", "details": "10 ng/mL RANKL, 1 μM and 2 μM", "from_the_text": "Figure 5 BRPF1B binding partners and effect of BRPF bromodomain inhibition on gene transcription during mouse osteoclastogenesis. […] The color of the circle represents the absolute spectral counts observed for the prey proteins. The circle size indicates the quantitative enrichment of a prey across all baits tested while the estimated FDR for the interaction is shown as the color of the circle edge. (B) Inhibition of murine osteoclast differentiation by panBRPF bromodomain inhibition. […] Bar scale indicates 200 μm. […] Data were normalized to day 0 of RANKL treatment. […] LaminB1 was used as a loading control.\nMurine osteoclast-like cells were PBS washed, homogenized and lysed in RIPA buffer (50 mM Tris-HCl, pH 7.4; 150 mM NaCl; 1% NP-40; 0.5% Na-deoxycholate; 0.1% SDS; 2 mM EDTA; 10 mM NaF) containing protease inhibitors (Pierce, according to manufacturer’s specifications) with a 1 mL syringe and a 23-gauge needle. After centrifugation at 15 000 rpm at 4 °C for 10 min, supernatants were frozen at −80 °C. Protein concentrations were assayed using a Pierce BCA Kit, and 30 μg of protein per lane was subjected on 10% SDS gel. […] Absorbance was measured at 440 nm."}, "[3]": {"test_system": "RANKL-induced expression of Ppap2a and SphK1", "test": "Microarray genome-wide expression in murine BMCs", "type": "cell-based, mouse", "details": "2 μM", "experimental": "(A) Heat map of the top 25 significant differentially expressed genes between DMSO and OF-1-treated BMCs based on sorted average p-value for the time points 48 and 72 h. Red indicates higher; blue indicates lower expression. See also, Supporting Information Figures 3 and 4.\nMurine bone marrow stem cells were differentiated into osteoclast-like cells as described above. Cells were PBS-washed and lysed in RLT-Buffer (including 2-Mercaptoethanol; Qiagen, UK), and RNA was isolated via RNeasy Plus Mini Kit (Quiagen, UK). After confirmation of RNA quality (RIN = 2 ± 0.1), cDNA synthesis of approximately 1000 ng of RNA with a High Capacity cDNA Reverse Transcription Kit (Applied Biosystems, UK) was carried out. A total of 500 ng/μL cDNA was subjected to MouseWG-6 v2.0 Expression BeadChips (Illumina) at the Department of Pathology, University of Cambridge. Microarray data are available in the ArrayExpress database (www.ebi.ac.uk/arrayexpress) under accession number E-MTAB-4155. Gene expression data underwent log2 transformation and quantile normalization. Genes were filtered based on their variation across the experiments, i.e., excluding genes with a standard deviation of expression lower than 0.1. For genes with multiple probes, only the highest variable probe was selected for further analysis. […]"}, "[4]": {"test_system": "osteoclast marker genes (TRAP, CATK, CA2, NFATC1, OC-STAMP) in murine BMCs", "test": "qPCR of osteoclast marker genes in murine BMCs", "type": "cell-based, mouse", "details": "10 ng/mL RANKL, 1 μM and 2 μM, 0-3 days"}, "[5]": {"test_system": "human osteoclast-like cells on dentine slices", "test": "Bone resorption on dentine slices", "details": "1 μM"}, "[6]": {"test_system": "primary murine bone marrow cells differentiated with RANKL", "test": "Murine osteoclast differentiation, TRAP stain", "type": "cell-based, mouse", "from_the_text": "Epigenetic mechanisms play an important role in patterning and differentiation processes, and BRPF and its associated HATs have been particularly associated with differentiation of hematopoietic cells. Given our interest in bone biology, and the hematopoietic origin of the osteoclast, we investigated the potential role of the targeted bromodomains in osteoclastogenesis in mouse and human cells. Bone marrow mononuclear cells were isolated from wild-type mice, cultivated for 5 days in the presence of CSF-1, and replated in the presence of RANKL for differentiation into osteoclasts,[28] either with DMSO as a control or with varying doses of the BRPF inhibitors. […] To understand the molecular basis for this observation, we investigated the expression of several osteoclast marker genes using qPCR. […] To further investigate other osteoclast-specific effects of the BRPF inhibitors on gene transcription, we profiled genome-wide expression with Illumina MouseWG-6 v2.0 Expression BeadChips at different time points."}, "[7]": {"test_system": "human osteoclast-like cells on bone mineral substrate", "test": "Bone resorption, Osteosurface assay (hydroxyapatite)", "type": "cell-based", "from_the_text": "Dentine pits were imaged with confocal microscopy."}, "BRPF2": {"biological_target": "T1, BRPF2 (Homo sapiens, UniProt O95696)", "T1 construct": "All recombinant bromodomains were expressed as described in Filippakopoulos et al; made in house", "T1 sequence (O95696 562-666 limits assumed)": "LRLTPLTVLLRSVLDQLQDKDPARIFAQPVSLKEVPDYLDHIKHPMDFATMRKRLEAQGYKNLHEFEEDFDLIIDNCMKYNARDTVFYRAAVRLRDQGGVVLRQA", "test": "Isothermal titration calorimetry (ITC)", "type": "binding", "details": "ITC data"}, "[8]": {"test_system": "human primary monocytes (PBMCs) differentiated with RANKL", "test": "Human osteoclast differentiation (TRAP-positive multinucleated cells)"}, "[9]": {"test_system": "murine monocytic RAW246.7 cells", "test": "Proliferation / cell count of RAW cells", "type": "cell-based, mouse", "details": "72 h treatment, 10 µM, n = 4, t-test p = 0.73", "experimental": "Supplementary Figure 4: Inhibition of murine osteoclast differentiation. A) TRAP stain of primary murine bone marrow cells (BMCs) differentiated into osteoclasts for 3 days with RANKL plus either the treatment with DMSO or NIL57 at 1 µM. Bar scale indicates 200 µm. […]\ntreated bone marrow cells after 1, 2 and 3 days of differentiation as compared to bone marrow cells before RANKL treatment start. C.) Count of RAW cells after 72 h treatment […]\ncontent of primary mouse BMCs treated for 0, 1, 2 and 3 days with either without or with 1"}}}
{"smiles": "COc1ccccc1C(=O)Nc1cc2c(cc1N1CCCC1)n(C)c(=O)n2C", "note": "[PFI-4]", "values": [{"measurement": "MMP9 secretion", "setting": "[1]", "result": "significant reductions"}]}
{"smiles": "COc1cc2c(cc1NS(=O)(=O)c1ccc(Br)cc1C)n(C)c(=O)n2C", "note": "[OF-1]", "values": [{"measurement": "MMP9 secretion", "setting": "[1]", "result": "significant reductions"}, {"measurement": "ΔTm at 10 µM", "setting": "BRD4(1)", "result": 2.1, "unit": "°C"}, {"measurement": "NFATC1 protein level", "setting": "[2]", "result": "strong down-regulation"}, {"measurement": "RANKL-induced expression of Ppap2a and SphK1", "setting": "[3]", "result": "significantly down-regulated"}, {"measurement": "expression of osteoclast marker genes (qPCR)", "setting": "[4]", "result": "significant reductions"}, {"measurement": "resorption of dentine", "setting": "[5]", "result": "complete block"}, {"measurement": "number of multinucleated TRAP positive cells", "setting": "[6]", "result": "significant reductions"}, {"measurement": "pit formation on hydroxyapatite (Osteosurface assay)", "setting": "[7]", "result": "significant reduction"}, {"measurement": "weaker potency for BRPF2 (vs BRPF1B)", "setting": "BRPF2", "result": 5, "unit": "fold"}, {"measurement": "fusion into multinucleated osteoclast-like cells", "setting": "[8]", "result": "completely suppress"}, {"measurement": "Count of RAW cells vs DMSO", "setting": "[9]", "result": "no significant difference"}]}
